{
  "source": "paper PMC6969517",
  "about": "(Proceedings of the National Academy of Sciences of the …, 2019)",
  "molecular_target": "T1, ShkA (Caulobacter vibrioides, UniProt Q9ABT2)",
  "T1 sequence (Q9ABT2 1-514)": "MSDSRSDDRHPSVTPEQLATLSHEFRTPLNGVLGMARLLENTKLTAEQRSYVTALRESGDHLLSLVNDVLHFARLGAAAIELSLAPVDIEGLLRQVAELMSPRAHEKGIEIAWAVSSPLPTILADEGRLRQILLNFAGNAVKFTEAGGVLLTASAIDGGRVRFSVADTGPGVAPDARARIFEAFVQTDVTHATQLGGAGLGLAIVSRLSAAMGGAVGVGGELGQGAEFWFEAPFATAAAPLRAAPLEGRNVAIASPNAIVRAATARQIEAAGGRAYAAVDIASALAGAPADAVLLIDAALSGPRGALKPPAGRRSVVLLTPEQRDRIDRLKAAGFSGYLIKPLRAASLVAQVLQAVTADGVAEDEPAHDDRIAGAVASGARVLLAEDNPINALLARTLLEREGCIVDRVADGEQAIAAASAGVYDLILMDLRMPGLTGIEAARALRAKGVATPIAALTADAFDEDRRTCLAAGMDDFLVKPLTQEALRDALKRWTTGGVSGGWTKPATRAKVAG",
  "assay": "FCA and ITC",
  "assay_type": "biochemical",
  "data": [
    {"compound": "Nc1ncnc2c1ncn2[C@@H]1O[C@H](COP(=O)(O)OP(=O)(O)O)[C@@H](O)[C@H]1O", "note": "[ADP]", "values": [
      {"measurement": "Ki", "result": "~60", "unit": "µM"}
    ]}
  ]
}
